The source of these data is US7098340B2, “Benzyl sulfonamide derivatives” (Warner Lambert Company LLC, priority 2003, dated 2006).

The assay concerns the target T1, androgen receptor (Homo sapiens, UniProt P10275).
T1 sequence (P10275 1-920 Q868H): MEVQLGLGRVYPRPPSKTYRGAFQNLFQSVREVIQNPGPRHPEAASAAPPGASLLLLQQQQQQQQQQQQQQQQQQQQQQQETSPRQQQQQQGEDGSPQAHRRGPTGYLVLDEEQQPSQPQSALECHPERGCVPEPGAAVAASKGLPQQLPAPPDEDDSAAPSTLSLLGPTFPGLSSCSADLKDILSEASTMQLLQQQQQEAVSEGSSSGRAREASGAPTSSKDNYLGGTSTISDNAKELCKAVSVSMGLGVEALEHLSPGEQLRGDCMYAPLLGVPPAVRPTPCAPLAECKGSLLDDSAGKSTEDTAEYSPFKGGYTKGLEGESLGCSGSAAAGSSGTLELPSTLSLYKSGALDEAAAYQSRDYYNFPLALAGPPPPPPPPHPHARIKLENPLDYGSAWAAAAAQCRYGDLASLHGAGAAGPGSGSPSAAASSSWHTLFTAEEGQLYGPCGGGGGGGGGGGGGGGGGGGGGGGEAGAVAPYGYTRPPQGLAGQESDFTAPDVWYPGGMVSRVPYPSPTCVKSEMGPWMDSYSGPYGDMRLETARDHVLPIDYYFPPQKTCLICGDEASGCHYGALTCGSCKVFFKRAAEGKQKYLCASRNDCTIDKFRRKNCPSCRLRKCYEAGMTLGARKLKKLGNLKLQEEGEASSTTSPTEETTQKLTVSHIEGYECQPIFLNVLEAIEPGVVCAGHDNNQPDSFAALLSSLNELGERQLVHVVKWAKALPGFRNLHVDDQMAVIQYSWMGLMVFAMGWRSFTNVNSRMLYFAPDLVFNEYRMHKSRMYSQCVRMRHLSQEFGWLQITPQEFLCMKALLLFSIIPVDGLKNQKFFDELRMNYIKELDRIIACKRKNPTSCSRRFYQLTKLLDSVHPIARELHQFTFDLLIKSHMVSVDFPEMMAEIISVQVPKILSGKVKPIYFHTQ
The experiment in a line: AR Antagonist Cell Assay (MMTV-luciferase reporter, DHT-stimulated). Format: cell-based. The conditions noted are these: MDA-MB453-MMTV clone 54-19 cells; antagonism of 100 pM DHT, 17 hr, luciferase readout. A digest of the protocol: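 MDA-MB453 cells stably carrying MMTV-ARE-firefly luciferase, in 1% charcoal-treated serum, preincubated 30 min with compound (10 uM or 1 uM) then stimulated with 100 pM DHT for 17 h at 37° C. Luminescence read; result as % inhibition of DHT fold induction.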

Some results are limits rather than exact numbers.

In the case of `O=c1cc(C(F)(F)F)c2cc(Cc3ccc(S(=O)(=O)Nc4ccc(Cl)cc4)cc3)ccc2[nH]1` [Example 26, N-(4-Chlorophenyl)-4-(2-oxo-4-trifluoromethyl-1,2-dihydroquinolin-6-ylmethyl)-benzenesulfonamide], 1.97 µM corresponded to half-maximal inhibition (IC50).

`O=c1cc(C(F)(F)F)c2cc(Cc3ccc(S(=O)(=O)Nc4cccc5c4CCC5)cc3)ccc2o1` [Example 128, N-Indan-4-yl-4-(2-oxo-4-trifluoromethyl-2H-chromen-6-ylmethyl)benzenesulfonamide] yielded a half-maximal inhibitory concentration (IC50) of 4.77 µM.

Compound `O=c1cc(C(F)(F)F)c2cc(Cc3ccc(S(=O)(=O)NCc4ccccc4Br)cc3)ccc2o1` [Example 203, N-(2-Bromobenzyl)-4-(2-oxo-4-trifluoromethyl-2H-chromen-6-ylmethyl)benzenesulfonamide] had an IC50 of 2.19 µM.

Consider `O=c1cc(C(F)(F)F)c2cc(Cc3ccc(S(=O)(=O)NCCCn4ccnc4)cc3)ccc2o1` [Example 174, N-(3-Imidazol-1-ylpropyl)-4-(2-oxo-4-triftuoromethyl-2H-chromen-6-ylmethyl)benzenesulfonamide], for which the IC50 was determined as 5.5 µM. Against the preceding compound, the IC50 is about 2.5-fold higher.

The compound `O=c1cc(C(F)(F)F)c2cc(Cc3ccc(S(=O)(=O)N(CCO)Cc4ccccc4)cc3)ccc2o1` [Example 103, N-Benzyl-N-(2-hydroxyethyl)-4-(2-oxo-4-trifluoromethyl-2H-chromen-6-ylmethyl)-benzenesulfonamide] had an IC50 of around 10 µM.

As for `O=c1cc(C(F)(F)F)c2cc(Cc3ccc(S(=O)(=O)Nc4cccc(-c5cnco5)c4)cc3)ccc2[nH]1` [Example 38, N-(3-Oxazol-5-ylphenyl)-4-(2-oxo-4-trifluoromethyl-1,2-dihydroquinolin-6-ylmethyl)benzenesulfonamide], the IC50 was above 10 µM.

Take `CC(=O)c1cccc(NS(=O)(=O)c2ccc(Cc3ccc4[nH]c(=O)cc(C(F)(F)F)c4c3)cc2)c1` [Example 21, N-(3-Acetylphenyl)-4-(2-oxo-4-trifluoromethyl-1,2-dihydroquinolin-6-ylmethyl)benzenesulfonamide]: the IC50 is 9.09 µM.

Compound `O=c1cc(C(F)(F)F)c2cc(Cc3ccc(S(=O)(=O)NCCc4ccccn4)cc3)ccc2[nH]1` [Example 59, 4-(2-Oxo-4-trifluoromethyl-1,2-dihydroquinolin-6-ylmethyl)-N-(2-pyridin-2-ylethyl)-benzenesulfonamide] displayed an IC50 of 9.25 µM.

As for `O=c1cc(C(F)(F)F)c2cc(Cc3ccc(S(=O)(=O)Nc4ccccc4N4CCCCC4)cc3)ccc2[nH]1` [Example 41, 4-(2-Oxo-4-trifluoromethyl-1,2-dihydroquinolin-6-ylmethyl)-N-(2-piperidin-1-ylphenyl)-benzenesulfonamide], the IC50 was above 10 µM.

For the compound `CC(CNS(=O)(=O)c1ccc(Cc2ccc3[nH]c(=O)cc(C(F)(F)F)c3c2)cc1)c1ccccc1` (stereo not drawn) [Example 65, 4-(2-Oxo-4-trifluoromethyl-1,2-dihydroquinolin-6-ylmethyl)-N-(2-phenylpropyl)-benzenesulfonamide], the IC50 worked out at 5.38 µM. This lies in the single-digit micromolar range.

For the compound `O=c1cc(C(F)(F)F)c2cc(Cc3ccc(S(=O)(=O)NCc4cc(C(F)(F)F)ccc4F)cc3)ccc2[nH]1` [Example 90, N-(2-Fluoro-5-trifluoromethylbenzyl)-4-(2-oxo-4-trifluoromethyl-1,2-dihydroquinolin-6-ylmethyl)-benzenesutfonamide], the IC50 came out at 2.62 µM. This IC50 is about 2.1-fold lower than that of the compound before.

`O=c1cc(C(F)(F)F)c2cc(Cc3ccc(S(=O)(=O)NCc4ccccc4C(F)(F)F)cc3)ccc2o1` [Example 201, 4-(2-Oxo-4-trifluoromethyl-2H-chromen-6-ylmethyl)-N-(2-trifluoromethylbenzyl)-benzenesulfonamide] displayed an IC50 of 4.04 µM. This IC50 lies about 1.5-fold higher than the previous one.

Consider `O=c1cc(C(F)(F)F)c2cc(Cc3ccc(S(=O)(=O)Nc4ccc5ncccc5c4)cc3)ccc2[nH]1` [Example 19, 4-(2-Oxo-4-trifluoromethyl-1,2-dihydroquinolin-6-ylmethyl)-N-quinolin-6-ylbenzenesulfonamide], for which the half-inhibitory concentration (IC50) was above 10 µM.

Regarding `CCCCN(CCCC)S(=O)(=O)c1ccc(Cc2ccc3oc(=O)cc(C(F)(F)F)c3c2)cc1` [Example 97, N,N-Dibutyl-4-(2-oxo-4-trifluoromethyl-2H-chromen-6-ylmethyl)benzenesulfonamide], the IC50 was 6.23 µM.

In turn, `CCc1cccc(NS(=O)(=O)c2ccc(Cc3ccc4[nH]c(=O)cc(C(F)(F)F)c4c3)cc2)c1` [Example 17, N-(3-Ethylphenyl)-4-(2-oxo-4-trifluoromethyl-1,2-dihydroquinolin-6-ylmethyl)benzenesulfonamide] showed a concentration for half-maximal inhibition (IC50) above 10 µM.

Compound `COc1ccc(OC)c(NS(=O)(=O)c2ccc(Cc3ccc4oc(=O)cc(C(F)(F)F)c4c3)cc2)c1` [Example 140, N-(2,5-Dimethoxyphenyl)-4-(2-oxo-4-trifluoromethyl-2H-chromen-6-ylmethyl)-benzenesulfonamide] showed a 50% inhibitory concentration (IC50) of 7.3 µM.

Consider `CCOc1ccc(NS(=O)(=O)c2ccc(Cc3ccc4oc(=O)cc(C(F)(F)F)c4c3)cc2)cc1` [Example 150, N-(4-Ethoxyphenyl)-4-(2-oxo-4-trifluoromethyl-2H-chromen-6-ylmethyl)-benzenesulfonamide], for which the midpoint of inhibition, the IC50, lay at 7.2 µM.

Compound `O=c1cc(C(F)(F)F)c2cc(Cc3ccc(S(=O)(=O)NC4CCCCCC4)cc3)ccc2o1` [Example 166, N-Cycloheptyl-4-(2-oxo-4-trifluoromethyl-2H-chromen-6-ylmethyl)benzenesulfonamide] yielded an IC50 of 6.97 µM.

Compound `O=c1cc(C(F)(F)F)c2cc(Cc3ccc(S(=O)(=O)Nc4ccccc4Br)cc3)ccc2[nH]1` [Example 40, N-(2-Bromophenyl)-4-(2-oxo-4-trifluoromethyl-1,2-dihydroquinolin-6-ylmethyl)-benzenesulfonamide] registered an IC50 of 5.61 µM. The IC50 values of the last two compounds are within 1.5-fold of each other.

With `O=c1cc(C(F)(F)F)c2cc(Cc3ccc(S(=O)(=O)Nc4ccc(CCO)cc4)cc3)ccc2o1` [Example 151, N-[4-(2-Hydroxyethyl)phenyl]-4-(2-oxo-4-trifluoromethyl-2H-chromen-6-ylmethyl)-benzenesulfonamide], the IC50 was 1.75 µM.

Compound `O=c1cc(C(F)(F)F)c2cc(Cc3ccc(S(=O)(=O)Nc4cc5ccccc5cn4)cc3)ccc2o1` [Example 136, N-Isoquinolin-3-yl-4-(2-oxo-4-trifluoromethyl-2H-chromen-6-ylmethyl)benzenesulfonamide] registered an IC50 above 10 µM.

In turn, `O=c1cc(C(F)(F)F)c2cc(Cc3ccc(S(=O)(=O)NCCN4CCOCC4)cc3)ccc2[nH]1` [Example 62, N-(2-Morpholin-4-ylethyl)-4-(2-oxo-4-trifluoromethyl-1,2-dihydroquinolin-6-ylmethyl)-benzenesulfonamide] registered an IC50 of 6.66 µM.

`O=c1cc(C(F)(F)F)c2cc(Cc3ccc(S(=O)(=O)NCC(c4ccccc4)c4ccccc4)cc3)ccc2o1` [Example 206, N-(2,2-Diphenylethyl)-4-(2-oxo-4-trifluoromethyl-2H-chromen-6-ylmethyl)benzene-sulfonamide] displayed an IC50 of 5.74 µM.

For `N#Cc1cccc(NS(=O)(=O)c2ccc(Cc3ccc4[nH]c(=O)cc(C(F)(F)F)c4c3)cc2)c1` [Example 16, N-(3-Cyanophenyl)-4-(2-oxo-4-trifluoromethyl-1,2-dihydroquinolin-6-ylmethyl)-benzenesulfonamide], the IC50 came to 2.02 µM.
